# Test results reported in ChEMBL document CHEMBL1201862, “PubChem BioAssay data set” (2004).
# Calls of active or inactive are those of the source.
# Legend:
# [1] = biological target: T1, Heat shock factor protein 1 (Mus musculus, UniProt P38532); experiment: HSF1 potentiators in luciferase reporter cells, confirmation, cell-based, NIH3T3, luminescence, dose retest (AID 435004); format: functional;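 also: stress induced by proteasome inhibitor MG132 added 30 min after compound; luciferase reporter driven by HSF1 response element in NIH3T3 cells; actives raise luminescence as potentiators of the MG132 stress response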
# T1 sequence (P38532 whole entry): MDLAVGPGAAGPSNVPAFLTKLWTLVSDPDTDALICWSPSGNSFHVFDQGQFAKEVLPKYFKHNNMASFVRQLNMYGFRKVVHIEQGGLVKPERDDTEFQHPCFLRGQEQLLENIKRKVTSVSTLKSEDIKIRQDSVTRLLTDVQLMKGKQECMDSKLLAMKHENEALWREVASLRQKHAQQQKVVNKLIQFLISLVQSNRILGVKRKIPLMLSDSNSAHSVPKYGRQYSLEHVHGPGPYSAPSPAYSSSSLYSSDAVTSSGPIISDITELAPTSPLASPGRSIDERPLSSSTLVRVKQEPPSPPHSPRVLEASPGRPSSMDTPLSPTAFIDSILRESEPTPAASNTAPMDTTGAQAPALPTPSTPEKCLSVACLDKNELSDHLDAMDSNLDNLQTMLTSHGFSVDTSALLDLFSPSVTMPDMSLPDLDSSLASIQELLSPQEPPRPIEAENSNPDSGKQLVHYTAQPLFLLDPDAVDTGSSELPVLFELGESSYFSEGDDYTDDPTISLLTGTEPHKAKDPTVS
# [2] = biological target: T2, Cytochrome P450 2C9 (Homo sapiens, UniProt P11712)
# T2 sequence (P11712 whole entry): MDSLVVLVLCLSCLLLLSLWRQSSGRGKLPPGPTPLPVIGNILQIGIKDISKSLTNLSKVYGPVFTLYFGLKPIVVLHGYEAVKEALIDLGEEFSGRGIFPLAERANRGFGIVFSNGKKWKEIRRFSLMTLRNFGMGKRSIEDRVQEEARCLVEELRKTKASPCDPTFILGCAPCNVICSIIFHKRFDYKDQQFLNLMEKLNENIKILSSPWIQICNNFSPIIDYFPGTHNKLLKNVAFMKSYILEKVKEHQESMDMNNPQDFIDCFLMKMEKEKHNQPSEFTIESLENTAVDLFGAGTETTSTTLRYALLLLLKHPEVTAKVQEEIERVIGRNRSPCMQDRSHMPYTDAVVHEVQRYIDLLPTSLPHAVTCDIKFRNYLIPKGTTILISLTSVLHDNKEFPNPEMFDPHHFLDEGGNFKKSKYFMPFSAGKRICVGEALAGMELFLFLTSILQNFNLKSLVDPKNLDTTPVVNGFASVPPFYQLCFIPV
# [3] = NIH-3T3 fibroblast cytotoxicity, dose response, cytotoxicity control, cell-based, fluorescence, Alamar Blue, secondary assay (AID 2327); format: functional;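 also: NIH-3T3 mouse fibroblasts cultured with fluconazole at 8 µg/mL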
# [4] = C. albicans growth with fluconazole, confirmation, fluorescence, retest (AID 2467); format: functional, cell-based
# [5] = biological target: Cytochrome P450 2C19 (Homo sapiens, UniProt P33261); experiment: Cytochrome panel assay with activity outcomes. Panel member name: p450-cyp2c19 Compounds with AC50 equal or less than 10 uM are considered active; format: functional
# Cytochrome P450 2C19, sequence (P33261 whole entry): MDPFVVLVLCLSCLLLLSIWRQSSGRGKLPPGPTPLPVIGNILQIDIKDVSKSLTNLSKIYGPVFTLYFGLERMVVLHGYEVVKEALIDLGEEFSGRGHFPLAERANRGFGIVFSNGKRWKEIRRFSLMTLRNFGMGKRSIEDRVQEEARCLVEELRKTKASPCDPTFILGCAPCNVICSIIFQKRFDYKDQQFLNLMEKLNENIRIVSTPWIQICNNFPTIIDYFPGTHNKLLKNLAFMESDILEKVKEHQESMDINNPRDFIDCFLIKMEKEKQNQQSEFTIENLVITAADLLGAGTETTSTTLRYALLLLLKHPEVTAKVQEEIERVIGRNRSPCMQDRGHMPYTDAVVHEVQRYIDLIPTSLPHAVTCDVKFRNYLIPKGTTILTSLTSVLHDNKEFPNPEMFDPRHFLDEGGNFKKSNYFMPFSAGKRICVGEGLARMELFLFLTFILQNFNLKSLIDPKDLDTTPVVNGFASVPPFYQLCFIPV
# [6] = biological target: Cytochrome P450 3A4 (Homo sapiens, UniProt P08684);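 also: CYP3A4 tested as one member of a cytochrome P450 panel screen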
# Cytochrome P450 3A4, sequence (P08684 whole entry): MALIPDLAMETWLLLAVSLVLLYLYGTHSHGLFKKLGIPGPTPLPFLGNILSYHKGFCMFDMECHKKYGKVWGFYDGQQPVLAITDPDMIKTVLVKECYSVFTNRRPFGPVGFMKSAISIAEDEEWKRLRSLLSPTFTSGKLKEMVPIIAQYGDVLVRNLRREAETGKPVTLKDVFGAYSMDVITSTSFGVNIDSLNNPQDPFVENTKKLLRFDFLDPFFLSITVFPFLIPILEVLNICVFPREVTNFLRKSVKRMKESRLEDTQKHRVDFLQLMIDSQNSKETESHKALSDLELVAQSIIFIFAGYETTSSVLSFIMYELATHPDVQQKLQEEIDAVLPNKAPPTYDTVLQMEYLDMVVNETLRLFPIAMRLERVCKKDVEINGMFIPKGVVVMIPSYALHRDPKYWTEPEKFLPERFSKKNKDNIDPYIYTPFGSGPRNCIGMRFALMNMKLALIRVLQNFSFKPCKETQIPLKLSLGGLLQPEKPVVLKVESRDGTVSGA
# [7] = biological target: Cytochrome P450 2D6 (Homo sapiens, UniProt P10635);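 also: CYP2D6 member of a cytochrome P450 panel assay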
# Cytochrome P450 2D6, sequence (P10635 whole entry): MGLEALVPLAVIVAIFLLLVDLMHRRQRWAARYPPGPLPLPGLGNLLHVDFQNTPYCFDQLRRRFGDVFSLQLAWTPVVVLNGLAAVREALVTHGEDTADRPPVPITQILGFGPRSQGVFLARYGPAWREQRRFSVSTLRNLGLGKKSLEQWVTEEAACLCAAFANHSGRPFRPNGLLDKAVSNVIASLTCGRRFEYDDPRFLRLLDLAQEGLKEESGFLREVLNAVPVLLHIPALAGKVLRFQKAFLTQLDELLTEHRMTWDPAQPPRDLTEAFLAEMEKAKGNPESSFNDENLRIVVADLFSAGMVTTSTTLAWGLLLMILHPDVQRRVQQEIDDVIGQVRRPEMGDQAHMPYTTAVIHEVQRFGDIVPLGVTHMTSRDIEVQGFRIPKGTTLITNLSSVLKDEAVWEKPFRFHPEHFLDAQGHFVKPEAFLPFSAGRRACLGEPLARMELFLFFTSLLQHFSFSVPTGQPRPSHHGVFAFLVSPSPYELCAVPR
# [8] = biological target: T2, Cytochrome P450 2C9; remark: listed apart in the source
# [9] = biological target: T3, Cytochrome P450 1A2 (Homo sapiens, UniProt P05177);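 also: PubChem cytochrome P450 panel assay, CYP1A2 panel member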
# T3 sequence (P05177 whole entry): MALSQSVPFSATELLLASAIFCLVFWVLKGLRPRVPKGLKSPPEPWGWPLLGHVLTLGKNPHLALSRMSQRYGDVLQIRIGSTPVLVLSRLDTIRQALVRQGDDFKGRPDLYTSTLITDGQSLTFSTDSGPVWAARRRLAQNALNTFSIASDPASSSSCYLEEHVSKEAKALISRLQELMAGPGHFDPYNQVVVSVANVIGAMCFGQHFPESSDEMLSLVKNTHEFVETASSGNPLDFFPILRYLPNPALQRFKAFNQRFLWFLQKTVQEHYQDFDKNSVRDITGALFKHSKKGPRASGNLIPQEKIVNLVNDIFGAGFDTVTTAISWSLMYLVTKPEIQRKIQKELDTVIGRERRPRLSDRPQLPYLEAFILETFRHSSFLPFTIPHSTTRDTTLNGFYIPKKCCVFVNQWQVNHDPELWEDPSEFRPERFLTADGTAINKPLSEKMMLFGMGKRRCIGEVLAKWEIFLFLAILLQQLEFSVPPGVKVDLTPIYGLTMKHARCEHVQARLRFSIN
# [10] = biological target: FAD-linked sulfhydryl oxidase ALR (Homo sapiens, UniProt P55789); experiment: inhibitors of human ALR sulfhydryl oxidase, dose response, biochemical, H2O2 detection, luminescence, cherry-pick (AID 493248)
# FAD-linked sulfhydryl oxidase ALR, sequence (P55789 whole entry): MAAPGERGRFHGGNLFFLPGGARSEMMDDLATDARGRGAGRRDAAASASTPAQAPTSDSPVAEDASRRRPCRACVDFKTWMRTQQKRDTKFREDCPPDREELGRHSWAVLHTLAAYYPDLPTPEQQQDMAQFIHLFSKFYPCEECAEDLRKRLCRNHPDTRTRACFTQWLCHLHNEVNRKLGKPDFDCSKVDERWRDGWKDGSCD
# [11] = inhibitors of intracellular T. cruzi replication, confirmation, NIH3T3 host cells, beta-gal luminescence (AID 2044); format: functional, cell-based;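 also: intracellular parasites grown in NIH/3T3 mouse fibroblasts as host cells; luminescent beta-galactosidase reporter signal from transgenic T. cruzi replicating inside host cells; inhibitors lower the luminescence signal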
# [12] = cytotoxicity toward NIH3T3 fibroblasts, dose response, counter-screen, cell-based, ATP luminescence, mouse fibroblasts (AID 2010); format: functional;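 also: cells exposed to compound for about 90 hours before reading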
# [13] = biological target: T4, Corticotropin-releasing factor receptor 2/Corticotropin-releasing factor-binding protein (Homo sapiens, UniProt P24387+Q13324); experiment: activators of CRF receptor 2 with binding protein – uHTS hits, confirmation (AID 602473); format: functional; settings: read-out: EC50_Mean
# T4 sequence (Q13324 whole entry): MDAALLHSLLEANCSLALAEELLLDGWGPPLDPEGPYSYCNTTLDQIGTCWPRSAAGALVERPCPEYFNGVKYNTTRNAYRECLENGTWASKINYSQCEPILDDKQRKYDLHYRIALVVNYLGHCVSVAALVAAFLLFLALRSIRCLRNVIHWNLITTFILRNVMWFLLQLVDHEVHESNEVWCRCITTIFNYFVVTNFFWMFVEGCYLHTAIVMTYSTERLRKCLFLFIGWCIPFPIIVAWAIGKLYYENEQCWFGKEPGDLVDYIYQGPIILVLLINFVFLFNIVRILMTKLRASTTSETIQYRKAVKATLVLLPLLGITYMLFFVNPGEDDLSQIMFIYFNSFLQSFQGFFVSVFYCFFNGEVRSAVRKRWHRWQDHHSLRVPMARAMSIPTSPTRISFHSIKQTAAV
# T4 sequence (P24387 whole entry): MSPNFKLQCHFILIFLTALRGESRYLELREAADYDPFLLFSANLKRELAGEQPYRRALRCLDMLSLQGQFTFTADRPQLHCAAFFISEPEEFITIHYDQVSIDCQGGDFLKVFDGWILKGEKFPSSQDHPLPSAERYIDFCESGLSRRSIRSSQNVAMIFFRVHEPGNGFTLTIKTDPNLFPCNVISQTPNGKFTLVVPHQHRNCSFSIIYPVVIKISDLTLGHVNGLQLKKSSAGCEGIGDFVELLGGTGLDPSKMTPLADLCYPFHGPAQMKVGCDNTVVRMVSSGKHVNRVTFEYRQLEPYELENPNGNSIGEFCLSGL
# [14] = tested on: Streptococcus sp. 'group A'; experiment: growth inhibition of control SK(-) GAS strain, dose response, counter-screen for streptokinase expression inhibitor project, luminescence, kanamycin, BacTiterGlo, confirmation (AID 1900); format: functional, organism-based
# [15] = tested on: Streptococcus; experiment: Group A Streptococcus viability loss, dose response, counter-screen for streptokinase expression inhibitor project, luminescence, BacTiterGlo (AID 1915); format: functional, organism-based;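 also: potency for reduction of bacterial viability or growth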
smiles,measurement,setting,value
Cc1cccc(N(C(=O)c2ccc(CN3CCOCC3)o2)C(C(=O)NC(C)(C)C)c2ccc(F)cc2)c1 (configuration not stated),EC50,[1],> 260 µM (inactive)
CCOC(=O)C(=O)/C(C#N)=C/Nc1ccccc1,EC50,[1],168 µM (active)
O=C(c1cc(C(F)(F)F)cc(C(F)(F)F)c1)N1CCC2(CC1)CCN(c1ncccn1)CC2,AC50,[2],inconclusive
Cc1nc2ccccn2c1C(=O)N/N=C/c1ccccc1[N+](=O)[O-],AC50,[2],inconclusive
O=C(CCCCCN1C(=O)c2cccc3cccc(c23)C1=O)N1CCOCC1,EC50,[3],22.3 µM (active)
same,EC50,[4],> 38 µM (not active)
COC(=O)CCC(=O)C1=C(N)CC(C)(C)CC1=O,EC50,[1],> 260 µM (inactive)
CCc1ccc(N2C(=O)c3ccc4c5c(ccc(c35)C2=O)CC4)cc1,AC50,[2],inconclusive
O=C(COc1ccc(Cl)cc1)NCCCNC(=O)c1ccccn1,EC50,[1],> 260 µM (inactive)
CNC(=O)N(O)C1N(/N=C/c2c(F)cccc2Cl)C(=S)SC1(C)C (configuration not stated),EC50,[1],> 260 µM (inactive)
CN(C)c1nc(C#N)nc(N2CCOCC2)n1,AC50,[5],inconclusive
same,AC50,[2],inconclusive
COc1ccccc1NC(=O)c1cnc2n(c1=O)CCS2,AC50,[6],31.6 µM (inconclusive)
same,AC50,[2],inconclusive
CSc1cccc(NC(=O)c2ccc(Cl)nc2)c1,AC50,[5]; read-out: AC50,25.1 µM (inconclusive)
same,AC50,[7],14.1 µM (inconclusive)
same,AC50,[8],39.8 µM (inconclusive)
CCC(C)NC(=O)c1c(C)cc(=O)oc1C (configuration not stated),AC50,[9],28.2 µM (inconclusive)
same,AC50,[8],5.01 µM (inconclusive)
O[C@@H]1C2CCCC1[C@]1(O)CCCCC1C2 (some centres not stated),EC50,[1],> 260 µM (inactive)
COc1cc(/C=N/NC(=O)c2ccc(CSc3nncn3C)cc2)cc(OC)c1O,AC50,[10],2.25 µM (active)
O=C(/C=C/c1ccccc1)NC(=S)Nc1ccc(N2CCOCC2)c(Cl)c1,EC50,[3],> 160 µM (inactive)
same,EC50,[4],5.76 µM (active)
COc1ccc(CC(=S)N2CCOCC2)cc1OC,AC50,[2],inconclusive
CN(c1ccccc1C(=O)N1CCN(c2ccccc2)CC1)S(C)(=O)=O,AC50,[10],2.93 µM (active)
O=C(NCc1ccc(F)cc1)C1CCN(S(=O)(=O)N2CCCCC2)CC1,AC50,[5]; read-out: AC50,31.6 µM (inconclusive)
same,AC50,[6],14.1 µM (inconclusive)
same,AC50,[8],10 µM (inconclusive)
O=S(=O)(c1ccccc1)N1CCC2(CCN(Cc3ccncc3)CC2)CC1,AC50,[7],25.1 µM (inconclusive)
same,AC50,[8],25.1 µM (inconclusive)
COc1ccc2[nH]c(C(=O)c3ccccc3)cc2c1,AC50,[8],39.8 µM (inconclusive)
Cc1ccccc1C(=O)NC(=S)NCC(=O)c1ccccc1,AC50,[6],28.2 µM (inconclusive)
same,AC50,[2],inconclusive
O=C(COC(=O)C1CC2C=CC1C2)Nc1ccc2c(c1)OC(F)(F)O2 (configuration not stated),EC50,[1],> 260 µM (inactive)
CCOc1ccccc1NC(=O)CN1CCC(NC(=O)c2ccccc2)CC1,AC50,[2],inconclusive
Cc1noc(C)c1C(=O)N1CCC2(CCN(Cc3ccccc3)CC2)CC1,AC50,[2],inconclusive
Cc1cc(C)c2cc(CN(Cc3ccco3)C(S)=NCC3CCCO3)c(O)nc2c1 (configuration not stated),EC50,[1],> 260 µM (inactive)
Cc1ccc(NC(=NO)c2nonc2N)cc1,AC50,[10],19.3 µM (active)
O=C(c1ccccc1)c1cccn1CC(=O)N1CCN(c2ccccc2)CC1,AC50,[10],12.4 µM (active)
COCc1nnc(NC(=O)c2ccc(S(=O)(=O)N3CCCc4ccccc43)cc2)o1,EC50,[3],> 150 µM (inconclusive)
same,EC50,[4],2.96 µM (active)
COc1cc(OC)c(C#N)c(S(=O)(=O)Cc2ccccc2)c1,AC50,[2],inconclusive
CO[C@H]1OC[C@@]2(C)[C@@H]3C4=C(CN2C(=O)OC(C)(C)C)[C@H](C)[C@H](CO)[C@H](CO)[C@H]4CC[C@H]13,AC50,[5]; read-out: AC50,39.8 µM (inconclusive)
same,AC50,[6],10 µM (inconclusive)
same,AC50,[8],20 µM (inconclusive)
O=C(c1cc(C(F)(F)F)cc(C(F)(F)F)c1)N1CCC2(CCCN(c3ccncc3)C2)CC1,AC50,[7],15.8 µM (inconclusive)
same,AC50,[8],31.6 µM (inconclusive)
O=C(O)c1ccc(/N=c2\oc3cc(O)ccc3cc2C(=O)NCc2ccccc2)cc1,AC50,[10],1.71 µM (active)
COC(=O)c1c(C)[nH]c(O)c1/C=N/c1ccc(C(C)C)cc1,EC50,[11],4.19 µM (active)
same,EC50,[12],> 60 µM (inconclusive)
same,AC50,[5]; read-out: AC50,25.1 µM (inconclusive)
same,EC50,[13],> 53 µM (inactive)
same,AC50,[6],28.2 µM (inconclusive)
same,AC50,[8],28.2 µM (inconclusive)
CCOC(=O)CSc1nc(O)c2cnn(-c3ccc(C)cc3)c2n1,AC50,[5],inconclusive
same,AC50,[6],3.16 µM (inconclusive)
same,AC50,[8],2.24 µM (inconclusive)
Cc1ccc(S(=O)(=O)NC2c3cccc4cccc(c34)C2Sc2nncn2C)cc1 (configuration not stated),EC50,[1],> 260 µM (inactive)
Cc1nn(Cc2ccc(Cl)cc2)c(C)c1N,AC50,[10],28.5 µM (active)
c1coc(CN2CCN(C(c3cccs3)c3nnnn3C3CCCC3)CC2)c1 (configuration not stated),AC50,[8],31.6 µM (inconclusive)
CCCCN1C(=O)CN(CCc2ccccc2)C(=O)C1c1ccc(OC)cc1 (configuration not stated),AC50,[7],39.8 µM (inconclusive)
same,AC50,[8],20 µM (inconclusive)
CSc1ccc(C#N)cc1NC(=O)c1cccc(Cl)c1,AC50,[7],10 µM (inconclusive)
same,AC50,[8],39.8 µM (inconclusive)
CCc1ccc(OCC(=O)NNC(=S)NC(=O)C2CCCCC2)c(Br)c1,EC50,[3],> 150 µM (inactive)
same,EC50,[14],< 0.06 µM (active)
same,EC50,[4],2.33 µM (active)
same,EC50,[15],3.91 µM (active)
CN(C)c1ccnc(-c2cccc(NS(C)(=O)=O)c2)n1,AC50,[6],31.6 µM (inconclusive)
same,AC50,[2],inconclusive
CCOC(=O)C1=C(c2ccccc2)NC(SC)=C(C#N)C1c1ccco1 (configuration not stated),EC50,[1],> 260 µM (inactive)
COc1cccc(Nc2ncc3nc(-c4cn(C)c5ccccc45)c(=O)n(C[C@H]4CCCO4)c3n2)c1,AC50,[2],inconclusive
Oc1[nH]c2ccccc2c1C1=NCCCC1,AC50,[10],0.325 µM (active)
Cc1cc2ccccc2c(=O)n1CC(=O)NCC(=O)N1CCCC1,AC50,[2],inconclusive
CCN1C/C(=C\c2cccc(C)c2)c2nc3ccccc3c(C(=O)O)c2C1,AC50,[7],17.8 µM (inconclusive)
same,AC50,[6],25.1 µM (inconclusive)
same,AC50,[8],8.91 µM (inconclusive)
